The values below come from patent US20050201938A1, “Method for selectively inhibiting ghrelin action” (priority 2000, published 2005).

Experiment [1] is described as follows: In vivo administration to wild-type mice: food intake and body weight. The note with it: for body weight increase: wild-type mice, subcutaneous injection, after 5 days of treatment, not in controls. The protocol: (§1) Wild-type mice (129SV strain) and NPY-knockout mice were obtained from Taconic Farms®. Eight-week old dwarf rats were purchased at Harlan UK. Animals were housed individually in a temperature controlled environment (25° C.) with a 12-hour light and 12-hour dark (18.00−06.00) photoperiod. All mice had ad libitum access to pelleted mouse food (5008 PMI® Nutrition International) and tap water. Mice were between 9 and 13 weeks of age and were injected daily between 17.00 and 18.00 with 0.1 ml of phosphate buffered saline (PBS) containing 0 or 8 mg/kg/d ghrelin over 13 days. Food intake and body weights were measured daily at 08.00 h. All animal experiments were conducted in accordance with the principles and procedures outlined in the National Institute of Health (NIH) Guide for the Care and Use of Laboratory Animals.
(§2) Mice were treated with GHRP-2 for 18 days. […] This was partially a consequence of decreased (p=0.02) lipid utilization measured by indirect calorimetry. Hypothalamic mRNA levels (measured by RT-PCR) of neuropeptide Y (NPY), agouti-related-protein (AGRP), pro-opio-melanocortin (POMC) and […] (MCH) were not changed. Since GHRP-6 increases c-fos expression in NPY-neurons (Vernon, R. G.; J Endocrinol 150, 129-40 (1996)) and because these neurons also release AGRP, a natural melanocyte stimulating hormone antagonist, GHRP-2 treatment was repeated in NPY-knockout mice (NPY-/−). […] However, an increase in AGRP mRNA levels (p=0.008, n=24 in GHRP-2 treated (NPY-/−)) was observed. Plasma levels of IGF-I, insulin, glucose and corticosterone were not changed. […] 200 μg of rat ghrelin was injected subcutaneously into wild-type mice, GHRP-2 or vehicle (phosphate buffered saline). After 5 days of treatment, body weight increased (p=0.00) 12% in both ghrelin- and GHRP-2-treated mice but not in controls. This weight gain was a consequence of decreased energy expenditure and decreased lipid utilization.

The nature of experiment [2]: In-vivo analysis of body composition by dual-energy X-ray absorptiometry (DXA). Also on record: species or system mice. The protocol: Body composition was measured on day 14 of the treatment period by DXA using a Norland p-DEXA® (Norland, USA). The system provides a non-invasive method for quantification of whole body composition and is based on the differential attenuation of high and low energy x-rays by the tissues in the scan area. Soft tissues attenuate the energy beam less than bone; of the soft tissue mass, fat tissue attenuates the beam less than lean tissue. Fat mass consists primarily of adipose tissue, but lean mass includes organs, tendons, cartilage, blood and body water in addition to skeletal muscle. In the present study, fat mass, lean mass and bone mineral content (bone mass) were measured and reported. Mice were anesthetized with inhalation of isoflorane and placed on the instrument platform in ventral position. Measurements were performed at a speed of 10 mm/min and a resolution of 0.5×0.5 mm. Quality controls using phantom ID2232 and Calibration Standard 82315 (Norland) were performed before starting measurements.
as §2

The test system of experiment [3] is NPY-knockout mice (NPY-/-). Kind of experiment: GHRP-2 treatment repeated in NPY-knockout mice. In kind it is in vivo. The method, then:
as §1
Mice were treated with GHRP-2 for 18 days. […] This was partially a consequence of decreased (p=0.02) lipid utilization measured by indirect calorimetry. Hypothalamic mRNA levels (measured by RT-PCR) of neuropeptide Y (NPY), agouti-related-protein (AGRP), pro-opio-melanocortin (POMC) and […] (MCH) were not changed. […]

A short description of experiment [4]: Indirect calorimetry (energy expenditure, fuel utilization). In kind it is in vivo, mice. The method, then: Twenty-four hour energy expenditure (EE) and respiratory quotient (RQ) were measured by indirect calorimetry using an open circuit calorimetry system (Oxymax, Columbus Instruments International Corporation; Columbus, Ohio). The instrument was calibrated before each experiment using standard gas mixtures containing known concentrations of CO2, N2 and O2. After the first daily injection, animals were placed in calorimeter chambers containing food and water in a room maintained under identical conditions as those described above throughout the treatment period. Gas sampled from each of 10 chambers was first dried by a condenser. The volume of oxygen consumed (VO2) and carbon dioxide produced (VCO2) in an hour was measured using a paramagnetic oxygen sensor and a spectrophotometric CO2 sensor. Such measurements were obtained hourly for 24 hours. RQ is the ratio of VCO2 to VO2. EE was calculated as the product of calorific value of oxygen (CV) and VO2 per kilogram (kg) of body weight; where CV=3.815+1.232*RQ (Elia, M. & Livesey, G, World Rev Nutr Diet 70, 68-131 (1992)). Total calories expended were calculated to determine daily fuel utilization. To calculate proportion of protein, fat and carbohydrate that is utilized during that 24-hour period, we used Flatt's proposal and assumed that protein utilization was equivalent to protein intake for adult stable animals (Flatt, J. P., J. Nutr Biochem 2, 193-202 (1991)). Using formulae and constants derived by Elia and Livesey (Elia, M. & Livesey, G., World Rev Nutr Diet, 70, 68-131 (1992)), we calculated the percent of daily fuel utilization derived from carbohydrate and fat. Daily caloric intake was calculated as (mass of daily food intake in g)*(physiological fuel value of the diet in kcal/g). Locomotor activity was measured by counting the number of times an animal breaks a new light beam during each of 24 hours in the calorimeter.
as §2

A short description of experiment [5]: Plasma levels of IGF-I, insulin, glucose and corticosterone after GHRP-2 treatment. The settings on record: GHRP-2 treated mice. Type of experiment: in vivo. The method, then: as §2
Experiment [6] relates to hypothalamic mRNA of NPY, AGRP, POMC, MCH. Kind of experiment: Hypothalamic mRNA levels measured by RT-PCR, wild-type mice. In kind it is in vivo. The settings on record: GHRP-2 treatment. The protocol:
as §2

Setting [7] is: mice treated with GHRP-2 for 18 days, n=42, p=0.001.
Where [8] appears, read: wild-type mice, 5 days of treatment.

On to GHRP-2, for which, in experiment [1] (setting [7]), the body weight result is given as “dose-dependent increase” and the food intake entry was “dose-dependent increase”. For the same substance, in experiment [1], the body weight increase is listed as 12%. Moreover, the fat mass result in experiment [2] (mice, 18 days treatment, DXA, p=0.002) is “significant increase”. Besides, the bone mass entry in experiment [2] (mice, 18 days treatment, DXA, p=0.017) was “significant increase”. Moreover, the lean mass result in experiment [2] (mice, 18 days treatment, DXA, p=0.63) is “no change”. In addition, the energy balance entry in experiment [3] is on record as “positive energy balance”. For the same substance, the “AGRP mRNA levels” value in experiment [3] (p=0.008, n=24) is “increase”. The lipid utilization result in experiment [4] (mice, 18 days treatment, indirect calorimetry, p=0.02) is given as “decreased”. In experiment [4] (setting [8]), the energy expenditure entry is reported as “decreased” and the lipid utilization entry is reported as “decreased”. In addition, in experiment [5], the “plasma level of IGF-I” value is recorded as “not changed”, the “plasma level of corticosterone” value is given as “not changed”, the “plasma level of glucose” value was “not changed” and the “plasma level of insulin” value is on record as “not changed”. Moreover, in experiment [6], the “hypothalamic mRNA level of agouti-related-protein (AGRP)” value is “not changed”, the “hypothalamic mRNA level of melanocyte-concentrating hormone (MCH)” value is on record as “not changed”, the “hypothalamic mRNA level of neuropeptide Y (NPY)” value is given as “not changed” and the “hypothalamic mRNA level of pro-opio-melanocortin (POMC)” value was “not changed”.
On to ghrelin, for which the body weight increase in experiment [1] was 12%. For the same substance, in experiment [2] (animal model, inventors' work, Nature 407: 908-913 (2000)), the “effect of administration in an animal model (fat deposition)” value is on record as “predominantly lead to fat deposition”. Besides, in experiment [4] (setting [8]), the energy expenditure result is on record as “decreased” and the lipid utilization result is “decreased”.
